The values below come from patent US20130136772A1, “REGULATION OF IMMUNE RESPONSE BY COLOCYNTHIN AND/OR ITS DERIVATIVES” (priority 2010, published 2013).

The subject of one assay is leucocyte migration. The experiment in a line: In vivo leucocyte migration (carrageenan induced pleurisy). The following applies: 5 mg/kg p.o. The arrangement: species or system mice. Here is the method: Mice were injected with 0.2 ml of carrageenan (1% w/v) solution in sterilised normal saline into the pleural cavity by the modified method of Meacock and Kitchen, 1979 [Meacock S C R, Kitchen E A, (1979). Effect of non-steroidal antiinflammatory drug benoxaprofen on leukocyte migration. Journal of Pharmacy & Pharmacology; 31: 366-370]. The test drug was administered orally 1 h before and 6 h after the injection. After 24 h of carrageenan injection the pleural exudate was collected, volume measured and the total leucocyte count of the pleural fluid was determined (Table 3). Flowcytometry as a tool for evaluation of neutrophils is particularly useful because of their larger size than monocytes and lymphocytes when analysed on the forward scatter [FSc]. The percentage of these can be analysed by selectively ‘gating’ the neutrophils without physical separation of the cells (FIG. 4).

Assay [1] deals with peritoneal murine macrophages. The experiment in a line: Phagocytosis of heat killed Candida albicans by murine macrophages (in vitro). The assay is classed as cell-based. The following applies: 5 μg/ml. Here is the method:
The method of Lehrer (1981) [Lehrer, R. I. Ingestion and destruction of Candida albicans. (1981) In: Methods for studying mono-nuclear phagocytes. Eds. Adams, D. O., Edelson, P. J. and Koren, H. (Academic Press, New York) 693-7081 was followed. The percentage and average number of Candida albicans cells (heatkilled) ingested by peritoneal murine macrophages was calculated. AD-B-63B was tested at the doses of 1, 2.5, Sand 10 μg/mL (Table 4).

A further assay has as its system skin allograft rejection. The experiment in a line: Skin allograft rejection time. Format: in vivo, mice. The conditions noted are these: for GRAFT REJECTION (Percent), delayed: 5 mg/kg p.o. Here is the method: The modified method of Billingham and Medawar (1951) [[…]] was followed to study the skin allograft rejection time in mice. Graded doses of test material AD-B-63B were administered to the animals for 7 days and graft rejection time (GRT) was recorded by daily observation of epithelial skin layer survival. […] The basic mechanism involved in increase in graft rejection time is the suppression of T lymphocytes. After transplantation, MHC peptide complexes of the foreign organ are recognized by CD4+ and CD8+ T cells of the recipient as non-self antigens. These T cells differentiate into effector T cells and stimulate an immune response. After T cells differentiate and migrate to the site, macrophages and other inflammatory agents are mediated to the site. Cytotoxic T cells (CD8+) lyse the endothelial cells on the graft, CD4+ Th1 activate macrophages and CD4+ Th2 aid in antibody production.

Assay [2] concerns cell mediated immune response (DTH). The experiment in a line: SRBC induced delayed type hypersensitivity (DTH) response. Format: in vivo, mice. The following applies: 5 mg/kg p.o. Here is the method:
Test material was administered 2 h after immunization of mice by 200 μl of 5×10^9 SRBCs/ml. On 7th day, the thickness of the left hind foot was measured with spheromicrometer (0.01 mm pitch) and was considered as control. These mice were then challenged by injecting the 20 μl of 5×10^9 SRBCs/ml intradermally into the left hind footpad. The footpad thickness was measured again at 24 h after challenge (Doherty, 1981).

In assay [3] the test system is humoral antibody response. Put plainly: SRBC induced haemagglutination antibody titre (humoral immune response). Format: in vivo, mice. As for the experimental part:
200 μl of 5×10^9 SRBC/ml was used to immunize the animals on day 0. Animals were treated with graded doses of AD-B-63B i.e., 1, 2.5, 5 and 10mg/kg p.o. for next six consecutive days. Blood samples were collected on day 7 for antibody titre assay. Haemagglutination antibody titre was determined following the microtitration technique described by Nelson and Midenhall, 1967. The value of highest serum dilution causing visible Haemagglutination was taken as titre. BSA saline alone served as control (Table 7).

The next assay concerns TNF-α. Put plainly: Intracellular TNF-α estimation in LPS activated murine neutrophils by flowcytometry. Format: cell-based. The conditions noted are these: 100 μg/ml. Here is the method: Flowcytometric studies were carried out to determine the anti-inflammatory effect of AD-B-63B on TNF-α cytokine expression in LPS activated murine neutrophils. Neutrophils play essential roles in host defence through their ability to clear bacterial infections. Their inappropriate activation contributes to a variety of inflammatory diseases, from the acute respiratory distress syndrome to asthma, chronic obstructive pulmonary disease and rheumatoid arthritis. TNF-α was chosen as the target for anti-inflammatory activity because of the fact that it is a pro-inflammatory cytokine and plays a major role in the pathogenesis of septic shock induced by LPS (Lipopolysaccharide) endotoxin injection [Remick, D. G.; Strieter, R. M.; Eskandari, M. K.; Nguyen, D. T.; Genord, M. A.; Raiford, C. L. Am. J. Path. 1990, 136, 49.]. LPS is an important triggering factor for in vivo systemic inflammatory response [Bone, R. C. Chest 1991, 100, 802]. LPS activates neutrophils via engagement of TLR4 (Toll-like receptor 4),[Sabroe, I.; Read, R. C.; Whyte, M. K. B.; Dockrell, D. H.; Vogel, S. N.; Dower, S. K. J. Immunol. 2003, 171, 1630.] resulting in the induction of a characteristic pro-inflammatory phenotype and prolongation of cell lifespan [Lee, A.; Whyte, M. K. B.; Haslett, C. J. Leukoc. Biol. 1993, 54, 283].
The anti-inflammatory activity of AD-B-63B was measured by the estimation of intracellular tumor necrosis factor alpha (TNF-α) expression in a gated population of neutrophils [Clara, B., R. C. Arancha, G. M. Andre's, P. Atanasio, A. Julia, and O. Alberto. 2003. A new method for detecting TNF-α-secreting cells using direct immunofluorescence surface membrane stainings. J. Immuno. Methods 264:77-87.]. Murine blood was subjected to centrifugation at 250× g for 20 min. Three layers were formed: an upper layer of platelet-rich plasma, a buffy coat middle layer and a lower layer formed of red blood cells. The middle layer was removed and subjected to Histopaque 1077 (Sigma) gradient separation. The upper layer containing neutrophils was removed and transferred to FACS tubes (Becton Dickinson). Lipopolysaccharide (LPS) derived from Escherichia coli (Sigma) was added at a concentration of 10 ng/ml for the stimulation of the cells. AD-B-63B was added at graded concentrations of 0.5, 1, 2.5, 5, 10 and 20 μg/ml. Samples were incubated for 3 h at 37° C. ( Table 1) Controls consisted of LPS-stimulated cells (LPS control). Further processing was done by the addition of FACS permeabilizing solution (Becton Dickinson), followed by the addition of phycoerythrin (PE)-labeled anti-mouse TNF-α. (Becton Dickinson). The cells were incubated in the dark, and after being washed with sterile PBS, samples were resuspended in PBS (pH 7.4) and acquired directly on the flow cytometer (FACS CANTO; Becton Dickinson). A fluorescence trigger was set on the […] parameter of the gated neutrophil populations (10,000 events). Rolipram at 100 μg/ml was used as standard inhibitor of TNF-α in this study. Fluorescence compensation, data analysis and data presentation were performed using software (Becton Dickinson) (FIG. 1) [Pandey A, Bani S, Kaul S, Sangawan P L; 2010, Selective Th1 upregulation by ethyl acetate fraction of Labisia pumila; 132 (2010) 309-315].

Assay [4] deals with Interleukin-1beta (IL-1β). The experiment in a line: Extracellular IL-1β in LPS stimulated murine neutrophils (ELISA, in vitro). The following applies: 100 μg/ml. The assay is classed as cell-based. Here is the method: Neutrophils were separated from whole blood by Histopaque gradient method (Histopaque-No. 1077). Cell count was adjusted to approximately 10^5/[…]. Lipopolysaccharide, at the concentration of 10 ng/ml was used as stimulus in in-vitro studies. […] Extracellular IL-1β was estimated through ELISA (Table 2) [Weir, R. E., Morgan, A. R., Britton, W. J., Butlin, C. R., Dockrell, H. M., 1994. Development of a whole blood assay to measure T cell responses to leprosy: a new tool for immuno-epidemiological fields studies of leprosy immunity. J. Immunol. Methods. 176, 93; Hussain, R., Kaleem, A., Shahid, F., Dojki, M., Jamil, B., Mehmood, H., Dawood, G., Dockrell, H., 2002. Cytokine profiles using whole blood assays can discriminate between tuberculosis patients and healthy endemic controls in a BCG-vaccinated population. J. Immunol. Methods. 264, 95-108]
On the technique in general: An ELISA detects its analyte on a solid surface through an enzyme-linked reagent.

As to `C[C@]12C=CC(=O)C=C1CC[C@@H]1[C@@H]2[C@@H](O)C[C@@]2(C)[C@H]1CC[C@]2(O)C(=O)CO` [Prednisolone, reference compound], in the assay with leucocyte migration, the “% inhibition of exudate volume” value was “(47.27%↓)” and the “% inhibition of total leucocyte count” value is recorded as “(33.23%↓)”. Moreover, the “EXUDATE VOLUME Mean ± S.E.” value in the assay with leucocyte migration (1 h before and 6 h after carrageenan, pleural exudate at 24 h) is 0.58 ± 0.28 mL. Also, in assay [1], the “% phagocytosis [in vitro study] Mean ± S.E.” value is reported as 15.99 ± 2.17% and the “percent decrease in phagocytosis” value is given as 40.35%. Moreover, in assay [1] (listed as PREDNISOLONE), the “percent decrease in phagocytosis” value was “(40.35%↓)”. For the same molecule, in the assay with skin allograft rejection, the “GRAFT REJECTION (Percent), delayed” value was determined as 39.69%. Also, in the assay with skin allograft rejection (5 mg/kg p.o. for 7 days), the “REJECTION TIME Mean ± S.E.” value worked out at 18.16 ± 0.16 days. Further, the “GRAFT REJECTION (Percent), delayed” value in the assay with skin allograft rejection (listed as PREDNISOLONE) is given as 39.69↓ %. Besides, in assay [2], the “PERCENT INHIBITION (DTH response)” value is given as 35.86↓ %. Also, the “FOOT PAD THICKNESS Mean ± SE” value in assay [2] (24 h after SRBC challenge) was determined as 0.59 ± 0.05 mm. Besides, the “% ACTIVITY (decrease in antibody titre)” value in assay [3] (5 mg/kg p.o.) is on record as 35.22↓ %. For the same molecule, the “ANTIBODY TITRE MEAN ± S.E” value in assay [3] (5 mg/kg p.o. for six days, blood on day 7) came to 3.99 ± 0.22.

Broadly, the inhibition is the share of the control response that was lost under treatment. `COc1ccc(C2CNC(=O)C2)cc1OC1CCCC1` (centres unmarked) [Rolipram, reference compound]: in the assay with TNF-α (LPS 10 ng/ml, 3 h), the “Expression of intracellular TNF-alpha, Mean ± S.E” value was 0.74 ± 0.04. The inhibition at 100 µg/mL in the assay with TNF-α (Mus musculus, Neutrophil, read-out: % TNF-alpha inhibition against LPS control) is 72.5%. Also, the “% activity IL-1β expression against LPS control (decrease)” value in assay [4] is reported as 52.85↓ %. Moreover, the “Concentration of IL-1β produced Mean ± S.E.” value in assay [4] (LPS 10 ng/ml, 4 hr) came out at 63.52 ± 2.07 pg/mL.
